Where “and” joins values, the source holds several entries; their conditions need not be identical. Equal values may be shown once.
System: 292921-168-R-J2-PDC spheroids with HUVEC/MSC, viability
Assay: Anticancer human tumor 292921-168-R-J2-PDC patient-derived pancreatic carcinoma cell line growth inhibition [TAK]
Conditions: for viability, T/C: stronger effect = lower value
Excerpt: Combinatorial screen of targeted agents with TAK-243 and ipatasertib in multi-cell type tumor spheroids
A high-throughput screen of multi-cell type tumor spheroids was designed to identify active combinations of targeted small molecules and TAK-243 or ipatasertib. Complex spheroids include a stromal component modeled by human endothelial cells (HUVEC) and fibroblasts modeled by human mesenchymal stem cells (MSCs). The concentration ranges selected for each drug and investigational agent were based upon clinically achievable concentrations if the clinical Cmax of the agent was known.
Compounds. The drugs and investigational agents: TAK-243 (785004), ipatasertib (767898), everolimus (733504), selumetinib (741078), bortezomib (756655), trametinib (758246), ixazomib (758254), vemurafenib (761431), dabrafenib (764134), sapanisertib (764658), alpelisib (765974), and copanlisib (816437), were obtained from the National Cancer Institute (NCI) Developmental Therapeutics Program Chemical Repository. The FDA-approved anticancer drug set is available from the NCI Developmental Therapeutics Program. […] The stock solutions were prepared in dimethyl sulfoxide (DMSO, Sigma-Aldrich, St. Louis, MO, cat. D2650) at 800-fold the tested concentration and stored at -70 degrees C prior to their use. All drugs and investigational agents were tested over a range starting from a high concentration at or near the clinical Cmax and decreasing in half-log increments. If the clinical Cmax for an agent had not been determined, the highest concentration tested was 10 microM.
NCI60 Cell Culture. NCI60 cell lines were obtained from the NCI Developmental Therapeutics Program Tumor Repository. For each lot of cells, the Repository performed Applied Biosystems AmpFLSTR Identifiler testing with PCR amplification to confirm consistency with the published Identifier STR profile for each cell line. Cells were kept in continuous culture for no more than 20 passages. The optimal seeding densities for each of the cell lines at each time point assessed were determined prior to performing the concentration response studies. Briefly, the NCI60 human tumor lines were grown as monolayers in RPMI 1640 medium supplemented with 10% FBS and 2 mmol/L L-glutamine.
An additional 2 lines were from the NCI60 cell line panel including melanomas, MALME-3M and SK-MEL-2. Pooled donor human umbilical vein endothelial cells (HUVEC, Lonza, cat. CC-2519) and human mesenchymal stem cells (hMSC, Lonza, cat. PT-2501) were purchased from Lonza (Walkersville, MD).
PDMR cell lines were grown in complete medium (DC medium): Dulbecco's modified Eagle's medium (DMEM)/F12 supplemented with 5% fetal bovine serum (FBS), 2 mM L-glutamine, 100 U/mL penicillin and 100 µg/ml streptomycin, 0.4 µg/ml hydrocortisone, 10 ng/ml epidermal growth factor (EGF) recombinant human protein, 24 µg/mL adenine, and 0.1 mg/mL primocin. During culture from frozen stock vials, PDMR cells were cultured in the same medium containing 10 µM Y-27632 (see Table 3). The PDCs were cultured in complete DMEM/F12 media without 10 microM Y-27632 dihydrochloride for at least two passages prior to the screen. The pooled donor HUVEC and hMSC were cultured in endothelial cell growth medium 2 (PromoCell, Heidelberg, Germany, cat. C-22011) and mesenchymal stem cell growth medium 2 (PromoCell, cat. C-28009), respectively. For all experiments, HUVEC and hMSC were used at passages </=5.
For the pre-screen, cell seeding densities were determined from a titration spanning the range from 5,000 to 313 cells per well. The mct-spheroids including 60% malignant cells, 25% HUVEC and 15% MSC dispensed as a mixture into U-bottom Ultra-Low Attachment 384-well plates (Corning, NY)
High-throughput Drug Combination Screening.
Prior to their inoculation into 384-well plates, malignant cells, HUVEC, and hMSC were removed from T flasks using TrypLE express (Thermo Fisher Scientific, cat. 12605036) and harvested by centrifugation for 5 min at 233 x g. […]

[1] = curve of first compound, second compound 0.3 µM
[2] = curve of first compound, second compound 0.949 µM
[3] = curve of first compound, second compound 3 µM
[4] = curve of first compound, second compound 9.49 µM
[5] = curve of first compound, second compound 30 µM
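Note: spheroids exposed to drugs for seven days before readout.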

How did the viability, T/C (compound 0.000316 µM) turn out when CC(C)CC(NC(=O)CNC(=O)c1cc(Cl)ccc1Cl)B1OC(=O)CC(CC(=O)O)(C(=O)O)O1 (stereo unspecified) was run?
Its viability, T/C is 99.7% and 104%.

What about the viability, T/C (compound 0.001 µM) of the same molecule?
Its viability, T/C is 107% and 92.5%.

What about the viability, T/C (compound 0.00316 µM) of the same molecule?
Its viability, T/C is 105% and 99.2%.

And the viability, T/C (compound 0.01 µM)?
The viability, T/C was 107% and 102%.

What about the viability, T/C (compound 0.0316 µM) of the same molecule?
The viability, T/C was 37.5% and 35.4%.

And the viability, T/C (compound 0.1 µM)?
Its viability, T/C is 11.4% and 6.93%.

And the IC50 (curve of compound)?
The IC50 was 25.5 nM and 24.4 nM.

How did the IC50 [1] turn out when CC(=O)Nc1cccc(-n2c(=O)n(C3CC3)c(=O)c3c(Nc4ccc(I)cc4F)n(C)c(=O)c(C)c32)c1 + CC(C)NCC(C(=O)N1CCN(c2ncnc3c2C(C)CC3O)CC1)c1ccc(Cl)cc1 was run?
Its IC50 is 0.45 nM.

And the IC50 [2]?
Its IC50 is 0.337 nM.

And the IC50 [3]?
Its IC50 is 0.209 nM.

What about the IC50 [4] of the same molecule?
Its IC50 is 0.11 nM.

What about the IC50 [5] of the same molecule?
Its IC50 is < 0.0949 nM.

And the viability, T/C (second compound 0.3 µM, first compound 94.9 pM)?
Its viability, T/C is 74.9%.

And the viability, T/C (second compound 0.3 µM, first compound 0.0003 µM)?
The viability, T/C was 59.5%.

What about the viability, T/C (second compound 0.3 µM, first compound 0.000949 µM) of the same molecule?
Its viability, T/C is 32.6%.

What about the viability, T/C (second compound 0.3 µM, first compound 0.003 µM) of the same molecule?
The viability, T/C was 25.7%.

And the viability, T/C (second compound 0.3 µM, first compound 0.00949 µM)?
The viability, T/C was 19.8%.

What about the viability, T/C (second compound 0.3 µM, first compound 0.03 µM) of the same molecule?
The viability, T/C was 13.9%.

And the viability, T/C (second compound 0.949 µM, first compound 94.9 pM)?
Its viability, T/C is 70.5%.

And the viability, T/C (second compound 0.949 µM, first compound 0.0003 µM)?
Its viability, T/C is 51.8%.

What about the viability, T/C (second compound 0.949 µM, first compound 0.000949 µM) of the same molecule?
Its viability, T/C is 35.6%.

What about the viability, T/C (second compound 0.949 µM, first compound 0.003 µM) of the same molecule?
Its viability, T/C is 26.6%.

And the viability, T/C (second compound 0.949 µM, first compound 0.00949 µM)?
Its viability, T/C is 17.8%.

What about the viability, T/C (second compound 0.949 µM, first compound 0.03 µM) of the same molecule?
Its viability, T/C is 13.1%.

And the viability, T/C (second compound 3 µM, first compound 94.9 pM)?
Its viability, T/C is 63.8%.

What about the viability, T/C (second compound 3 µM, first compound 0.0003 µM) of the same molecule?
The viability, T/C was 44%.

What about the viability, T/C (second compound 3 µM, first compound 0.000949 µM) of the same molecule?
Its viability, T/C is 28.8%.

And the viability, T/C (second compound 3 µM, first compound 0.003 µM)?
Its viability, T/C is 22.5%.

And the viability, T/C (second compound 3 µM, first compound 0.00949 µM)?
Its viability, T/C is 16.6%.

And the viability, T/C (second compound 3 µM, first compound 0.03 µM)?
Its viability, T/C is 12.3%.

And the viability, T/C (second compound 9.49 µM, first compound 94.9 pM)?
Its viability, T/C is 51.4%.

And the viability, T/C (second compound 9.49 µM, first compound 0.0003 µM)?
The viability, T/C was 39%.

And the viability, T/C (second compound 9.49 µM, first compound 0.000949 µM)?
Its viability, T/C is 25.4%.

And the viability, T/C (second compound 9.49 µM, first compound 0.003 µM)?
The viability, T/C was 18.8%.

And the viability, T/C (second compound 9.49 µM, first compound 0.00949 µM)?
Its viability, T/C is 14.3%.

What about the viability, T/C (second compound 9.49 µM, first compound 0.03 µM) of the same molecule?
The viability, T/C was 10.7%.

And the viability, T/C (second compound 30 µM, first compound 94.9 pM)?
The viability, T/C was 34.9%.

And the viability, T/C (second compound 30 µM, first compound 0.0003 µM)?
Its viability, T/C is 26.6%.

What about the viability, T/C (second compound 30 µM, first compound 0.000949 µM) of the same molecule?
The viability, T/C was 20.3%.

And the viability, T/C (second compound 30 µM, first compound 0.003 µM)?
Its viability, T/C is 16%.

And the viability, T/C (second compound 30 µM, first compound 0.00949 µM)?
The viability, T/C was 12.2%.

And the viability, T/C (second compound 30 µM, first compound 0.03 µM)?
Its viability, T/C is 9.91%.

Which viability, T/C (compound 94.9 pM) does the source give for CC(=O)Nc1cccc(-n2c(=O)n(C3CC3)c(=O)c3c(Nc4ccc(I)cc4F)n(C)c(=O)c(C)c32)c1 here?
The viability, T/C was 91.6% and 97.1%.

And the viability, T/C (compound 0.0003 µM)?
The viability, T/C was 58.9% and 67.7%.

And the viability, T/C (compound 0.000949 µM)?
Its viability, T/C is 36.9% and 48.5%.

What about the viability, T/C (compound 0.003 µM) of the same molecule?
The viability, T/C was 25.6% and 25.7%.

And the viability, T/C (compound 0.00949 µM)?
Its viability, T/C is 17.6% and 20.3%.

And the viability, T/C (compound 0.03 µM)?
Its viability, T/C is 11.1%.

And the IC50 (curve of compound)?
The IC50 was 0.49 nM and 0.767 nM.

How did the viability, T/C (compound 0.0316 µM) turn out when Cc1nc(NC(=O)N2CCCC2C(N)=O)sc1-c1ccnc(C(C)(C)C(F)(F)F)c1 (stereo unspecified) was run?
The viability, T/C was 97.9% and 99.8%.

What about the viability, T/C (compound 0.1 µM) of the same molecule?
The viability, T/C was 78.4% and 71.1%.

And the viability, T/C (compound 0.316 µM)?
The viability, T/C was 61.5% and 55.7%.

And the viability, T/C (compound 1 µM)?
The viability, T/C was 44.4% and 38.9%.

And the viability, T/C (compound 3.16 µM)?
The viability, T/C was 30.1% and 28.9%.

And the viability, T/C (compound 10 µM)?
The viability, T/C was 20.4% and 22.4%.

What about the IC50 (curve of compound) of the same molecule?
Its IC50 is 672 nM and 422 nM.

Which results are given for CC(C)n1nc(-c2ccc3oc(N)nc3c2)c2c(N)ncnc21 + CC(C)NCC(C(=O)N1CCN(c2ncnc3c2C(C)CC3O)CC1)c1ccc(Cl)cc1?
IC50 [1]: 9.58 nM; IC50 [2]: 8.57 nM; IC50 [3]: 6.94 nM; IC50 [4]: 2.52 nM; IC50 [5]: < 0.316 nM; viability, T/C (second compound 0.3 µM, first compound 0.000316 µM): 81%; viability, T/C (second compound 0.3 µM, first compound 0.001 µM): 77.2%; viability, T/C (second compound 0.3 µM, first compound 0.00316 µM): 67.4%; viability, T/C (second compound 0.3 µM, first compound 0.01 µM): 49.9%; viability, T/C (second compound 0.3 µM, first compound 0.0316 µM): 35.3%; viability, T/C (second compound 0.3 µM, first compound 0.1 µM): 32.2%; viability, T/C (second compound 0.949 µM, first compound 0.000316 µM): 81.6%; viability, T/C (second compound 0.949 µM, first compound 0.001 µM): 70.9%; viability, T/C (second compound 0.949 µM, first compound 0.00316 µM): 63.7%; viability, T/C (second compound 0.949 µM, first compound 0.01 µM): 48.9%; viability, T/C (second compound 0.949 µM, first compound 0.0316 µM): 35%; viability, T/C (second compound 0.949 µM, first compound 0.1 µM): 32.2%; viability, T/C (second compound 3 µM, first compound 0.000316 µM): 73.6%; viability, T/C (second compound 3 µM, first compound 0.001 µM): 73%; viability, T/C (second compound 3 µM, first compound 0.00316 µM): 62.2%; viability, T/C (second compound 3 µM, first compound 0.01 µM): 43.8%; viability, T/C (second compound 3 µM, first compound 0.0316 µM): 34.2%; viability, T/C (second compound 3 µM, first compound 0.1 µM): 29%; viability, T/C (second compound 9.49 µM, first compound 0.000316 µM): 63.7%; viability, T/C (second compound 9.49 µM, first compound 0.001 µM): 57%; viability, T/C (second compound 9.49 µM, first compound 0.00316 µM): 48.3%; viability, T/C (second compound 9.49 µM, first compound 0.01 µM): 37.8%; viability, T/C (second compound 9.49 µM, first compound 0.0316 µM): 27.6%; viability, T/C (second compound 9.49 µM, first compound 0.1 µM): 26.3%; viability, T/C (second compound 30 µM, first compound 0.000316 µM): 43.4%; viability, T/C (second compound 30 µM, first compound 0.001 µM): 39.7%; viability, T/C (second compound 30 µM, first compound 0.00316 µM): 33.7%; viability, T/C (second compound 30 µM, first compound 0.01 µM): 26.4%; viability, T/C (second compound 30 µM, first compound 0.0316 µM): 23.9%; viability, T/C (second compound 30 µM, first compound 0.1 µM): 21.7%

— PubChem BioAssay AID2060357 (Molecular Pharmacology Branch, DTP, NCI, 2025)
